The text below walks through data of patent US7981893B2, “Heteroaryl compounds, compositions thereof, and methods of treatment therewith” (Signal Pharmaceuticals, LLC, priority 2006, dated 2011).

Some results are limits rather than exact numbers.

On to `Cl.NCc1nc(-c2ccc(-c3cnc4[nH]c(=O)n(CC5CCCCC5)c4n3)cc2)n[nH]1`, for which the melting point was in the range of 326 to 329 °C.
In the case of `Cl.O=c1[nH]c2ncc(-c3ccc(O)cc3)nc2n1CC1CCCN1` (stereo not shown) it was 178 to 180 °C; in that of `Cl.O=c1[nH]c2ncc(-c3ccc(-c4nnc[nH]4)cc3)nc2n1CCN1CCCCC1`, 194 to 197 °C.
The same measure for `CC(c1ccccc1)n1c(=O)[nH]c2ncc(-c3ccnc4ccccc34)nc21` (stereo not shown) [Compound 70, 1-(1-phenylethyl)-6-(quinolin-4-yl)-1H-imidazo[4,5-b]pyrazin-2(3H)-one]: 252 to 254 °C; for `COc1ccccc1-n1c(=O)[nH]c2ccc(-c3cccc(O)c3)nc21` [Compound 92, 5-(3-Hydroxyphenyl)-3-(2-methoxyphenyl)-1H-imidazo[4,5-b]pyridin-2(3H)-one]: 240 to 242 °C.
In the case of `O=c1[nH]c2ncc(-c3ccc(O)cc3)nc2n1C1CCCCC1` [Compound 95, 1-Cyclohexyl-6-(4-hydroxyphenyl)-1H-imidazo[4,5-b]pyrazin-2(3H)-one] it was 318 to 320 °C; in that of `NC(=O)c1ccc(-c2cnc3[nH]c(=O)n(CC4CCCCC4)c3n2)cc1` [Compound 96, 4-(3-(Cyclohexylmethyl)-2-oxo-2,3-dihydro-1H-imidazo[4,5-b]pyrazin-5-yl)benzamide], 293 to 295 °C.
In turn, `COC(=O)c1ccc(-c2cnc3[nH]c(=O)n(CC4CCCCC4)c3n2)cc1` [Compound 97, Methyl 4-(3-(cyclohexylmethyl)-2-oxo-2,3-dihydro-1H-imidazo[4,5-b]pyrazin-5-yl)benzoate] came in with a melting point of 253 to 255 °C.
Consider `O=c1[nH]c2ncc(-c3ccncc3)nc2n1CC1CCCCC1` [Compound 98, 1-(Cyclohexylmethyl)-6-(pyridin-4-yl)-1H-imidazo[4,5-b]pyrazin-2(3H)-one], for which the melting point lay in the range of 267 to 269 °C.
In the case of `CNC(=O)c1ccc(-c2cnc3[nH]c(=O)n(CC4CCCCC4)c3n2)cc1` [Compound 99, 4-(3-(Cyclohexylmethyl)-2-oxo-2,3-dihydro-1H-imidazo[4,5-b]pyrazin-5-yl)-N-methylbenzamide] it was 273 to 275 °C; in that of `O=c1[nH]c2ncc(-c3ccc(CO)cc3)nc2n1CC1CCCCC1` [Compound 100, 1-(Cyclohexylmethyl)-6-(4-(hydroxymethyl)phenyl)-1H-imidazo[4,5-b]pyrazin-2(3H)-one], 275 to 277 °C; in that of `O=c1[nH]c2ncc(-c3cccnc3)nc2n1CC1CCCCC1` [Compound 101, 1-(Cyclohexylmethyl)-6-(pyridin-3-yl)-1H-imidazo[4,5-b]pyrazin-2(3H)-one], 205 °C.
As to `O=c1[nH]c2ncc(-c3ccc4[nH]ccc4c3)nc2n1CC1CCCCC1` [Compound 103, 1-(Cyclohexylmethyl)-6-(1H-indol-5-yl)-1H-imidazo[4,5-b]pyrazin-2(3H)-one], the melting point fell in the range of 343 to 346 °C.
In the case of `CC(C)NC(=O)c1ccc(-c2cnc3[nH]c(=O)n(CC4CCCCC4)c3n2)cc1` [Compound 104, 4-(3-(Cyclohexylmethyl)-2-oxo-2,3-dihydro-1H-imidazo[4,5-b]pyrazin-5-yl)-N-isopropylbenzamide] it was 264 to 268 °C; in that of `O=c1[nH]c2ncc(-c3ccc(O)cc3)nc2n1CCO` [Compound 105, 1-(2-Hydroxyethyl)-6-(4-hydroxyphenyl)-1H-imidazo[4,5-b]pyrazin-2(3H)-one], 308 to 310 °C.
For the compound `O=c1[nH]c2ncc(-c3ccc4cc[nH]c4c3)nc2n1CC1CCCCC1` [Compound 106, 1-(Cyclohexylmethyl)-6-(1H-indol-6-yl)-1H-imidazo[4,5-b]pyrazin-2(3H)-one], the melting point lay within 359 to 363 °C.
The same measure for `CN1CCC(Cn2c(=O)[nH]c3ncc(-c4ccc(O)cc4)nc32)CC1` [Compound 109, 6-(4-Hydroxyphenyl)-1-((1-methylpiperidin-4-yl)methyl)-1H-imidazo[4,5-b]pyrazin-2(3H)-one]: 292 to 294 °C; for `N#Cc1ccc(-c2cnc3[nH]c(=O)n(CC4CCCCC4)c3n2)cc1` [Compound 110, 4-(3-(Cyclohexylmethyl)-2-oxo-2,3-dihydro-1H-imidazo[4,5-b]pyrazin-5-yl)benzonitrile]: 255 to 257 °C; for `CC(C)(O)c1ccc(-c2cnc3[nH]c(=O)n(CC4CCCCC4)c3n2)cc1` [Compound 114, 1-(Cyclohexylmethyl)-6-(4-(2-hydroxypropan-2-yl)phenyl)-1H-imidazo[4,5-b]pyrazin-2(3H)-one]: 226 to 228 °C.
The same measure for `Cc1cc(O)ccc1-c1cnc2[nH]c(=O)n(CC3CCCCC3)c2n1` [Compound 115, 1-(Cyclohexylmethyl)-6-(4-hydroxy-2-methylphenyl)-1H-imidazo[4,5-b]pyrazin-2(3H)-one]: 212 to 214 °C; for `O=C(O)c1ccc(-c2cnc3[nH]c(=O)n(CC4CCCCC4)c3n2)cc1` [Compound 116, 4-(3-(Cyclohexylmethyl)-2-oxo-2,3-dihydro-1H-imidazo[4,5-b]pyrazin-5-yl)benzoic acid]: above 350 °C.
The same measure for `COCCn1c(=O)[nH]c2ncc(-c3ccc(O)cc3)nc21` [Compound 117, 6-(4-Hydroxyphenyl)-1-(2-methoxyethyl)-1H-imidazo[4,5-b]pyrazin-2(3H)-one]: 236 to 237 °C; for `COCCCn1c(=O)[nH]c2ncc(-c3ccc(O)cc3)nc21` [Compound 118, 6-(4-Hydroxyphenyl)-1-(3-methoxypropyl)-1H-imidazo[4,5-b]pyrazin-2(3H)-one]: 208 to 210 °C.
Regarding `COc1cccc(CN2CC(=O)Nc3ncc(-c4ccc(O)cc4)nc32)c1` [Compound 119, 6-(4-Hydroxyphenyl)-4-(3-methoxybenzyl)-3,4-dihydropyrazino[2,3-b]pyrazin-2(1H)-one], the melting point is 282 to 283 °C.
In the case of `O=c1[nH]c2ncc(-c3ccc(O)cc3)nc2n1CCC1CCOCC1` [Compound 120, 6-(4-Hydroxyphenyl)-1-(2-(tetrahydro-2H-pyran-4-yl)ethyl)-1H-imidazo[4,5-b]pyrazin-2(3H)-one] it was 276 to 277 °C.
In the case of `O=c1[nH]c2ncc(-c3ccc(O)cc3)nc2n1CCc1ccccc1` [Compound 121, 6-(4-Hydroxyphenyl)-1-phenethyl-1H-imidazo[4,5-b]pyrazin-2(3H)-one] it was 283 to 284 °C; in that of `O=c1[nH]c2ncc(-c3ccccc3)nc2n1CC1CCCCC1` [Compound 124, 1-(Cyclohexylmethyl)-6-phenyl-1H-imidazo[4,5-b]pyrazin-2(3H)-one], 253 to 255 °C.
The same measure for `O=c1[nH]c2ncc(-c3ccn[nH]3)nc2n1CC1CCCCC1` [Compound 125, 1-(Cyclohexylmethyl)-6-(1H-pyrazol-5-yl)-1H-imidazo[4,5-b]pyrazin-2(3H)-one]: 264 to 266 °C; for `O=c1[nH]c2ncc(-c3cn[nH]c3)nc2n1CC1CCCCC1` [Compound 126, 1-(Cyclohexylmethyl)-6-(1H-pyrazol-4-yl)-1H-imidazo[4,5-b]pyrazin-2(3H)-one]: 246 to 248 °C.
`O=C1NCc2cc(-c3cnc4[nH]c(=O)n(CC5CCCCC5)c4n3)ccc21` [Compound 127, 1-(Cyclohexylmethyl)-6-(1-oxoisoindolin-5-yl)-1H-imidazo[4,5-b]pyrazin-2(3H)-one] came in with a melting point of 337 to 339 °C.
Consider `O=C1Cc2cc(-c3cnc4[nH]c(=O)n(CC5CCCCC5)c4n3)ccc2N1` [Compound 129, 1-(Cyclohexylmethyl)-6-(2-oxoindolin-5-yl)-1H-imidazo[4,5-b]pyrazin-2(3H)-one], for which the melting point is 313 to 316 °C.
`O=c1[nH]c2ncc(-c3ccc4[nH]ncc4c3)nc2n1CC1CCCCC1` [Compound 130, 1-(Cyclohexylmethyl)-6-(1H-indazol-5-yl)-1H-imidazo[4,5-b]pyrazin-2(3H)-one]: the melting point lay in the range of 311 to 313 °C.
In the case of `COc1ccc(-c2cnc3[nH]c(=O)n(CC4CCCCC4)c3n2)cn1` [Compound 131, 1-(Cyclohexylmethyl)-6-(6-methoxypyridin-3-yl)-1H-imidazo[4,5-b]pyrazin-2(3H)-one] it was 235 to 237 °C; in that of `O=c1[nH]c2ncc(-c3ccc(O)cc3)nc2n1C1CCOCC1` [Compound 132, 6-(4-Hydroxyphenyl)-1-(tetrahydro-2H-pyran-4-yl)-1H-imidazo[4,5-b]pyrazin-2(3H)-one], 382 to 383 °C; in that of `O=c1[nH]c2ncc(-c3ccc(O)cc3)nc2n1CC1CCNCC1` [Compound 133, 6-(4-Hydroxyphenyl)-1-(piperidin-4-ylmethyl)-1H-imidazo[4,5-b]pyrazin-2(3H)-one], 300 °C (dec.).
The same measure for `O=c1[nH]c2ncc(-c3ccc(O)nc3)nc2n1CC1CCCCC1` [Compound 135, 1-(Cyclohexylmethyl)-6-(6-hydroxypyridin-3-yl)-1H-imidazo[4,5-b]pyrazin-2(3H)-one]: above 400 °C; for `COc1cc(-c2cnc3[nH]c(=O)n(CC4CCCCC4)c3n2)ccn1` [Compound 136, 1-(Cyclohexylmethyl)-6-(2-methoxypyridin-4-yl)-1H-imidazo[4,5-b]pyrazin-2(3H)-one]: 295 to 297 °C; for `O=C1Cc2ccc(-c3cnc4[nH]c(=O)n(CC5CCCCC5)c4n3)cc2N1` [Compound 140, 1-(Cyclohexylmethyl)-6-(2-oxoindolin-6-yl)-1H-imidazo[4,5-b]pyrazin-2(3H)-one]: 334 to 336 °C.
`Cc1cc(C(=O)O)ccc1-c1cnc2[nH]c(=O)n(CC3CCCCC3)c2n1` [Compound 141, 4-(3-(Cyclohexylmethyl)-2-oxo-2,3-dihydro-1H-imidazo[4,5-b]pyrazin-5-yl)-3-methyl benzoic acid] showed a melting point of 244 to 247 °C.
In the case of `CNC(=O)c1ccc(-c2cnc3[nH]c(=O)n(CC4CCOCC4)c3n2)cc1` [Compound 142, N-Methyl-4-(2-oxo-3-((tetrahydro-2H-pyran-4-yl)methyl)-2,3-dihydro-1H-imidazo[4,5-b]pyrazin-5-yl)benzamide], the melting point is 328 to 330 °C.
